Experimental data as given in ChEMBL document CHEMBL5584212, “Characterization of the G-quadruplexes in the transthyretin gene and its role in silencing transthyretin mRNA transcription” (Bioorg Med Chem Lett, 2024).
pKd: −log10 of the molar value. Activity calls are given as the source filed them. No cut-off for these calls is given here.

Legend:
HepG2 [1] = assay: Downregulation of TTR mRNA expression in human HepG2 cells by RT-PCR analysis; assay type: functional, cell-based
HepG2 [2] = assay: Induction of apoptosis in human HepG2 cells at 20 uM incubated for 48 hrs by calcein-AM/PI staining based analysis; assay type: functional, cell-based
Quadruplex DNA [3] = assay: Stabilization of parallel TTRG3 G-quadruplex (unknown origin) by CD spectra analysis; assay type: nucleic-acid assay
Quadruplex DNA [4] = assay: Binding affinity to TTRG3 G-quadruplex (unknown origin) assessed as hyperchromic shift by measuring increase in absorbance intensity at 1 uM by UV-Visible spectrophotometric analysis; assay type: nucleic-acid assay
Quadruplex DNA [5] = assay: Stabilization of TTRG3 G-quadruplex (unknown origin) assessed as change in melting temperature in presence of K+ by circular dichroism analysis; assay type: nucleic-acid assay
Quadruplex DNA [6] = assay: Binding affinity to TTRG3 G-quadruplex (unknown origin) assessed as increase in fluorescence intensity at 2 uM by fluorescence titration spectra analysis; assay type: nucleic-acid assay
Quadruplex DNA [7] = assay: Binding affinity to parallel TTRG1 G-quadruplex (unknown origin) assessed as formation of anti-parallel G-quadruplex formation in presence of 1 mM K+ by circular dichroism spectra analysis; assay type: nucleic-acid assay
Quadruplex DNA [8] = assay: Stabilization of TTRG3 G-quadruplex (unknown origin) assessed as melting temperature in presence of K+ by circular dichroism analysis; assay type: nucleic-acid assay
Quadruplex DNA [9] = assay: Binding affinity to TTRG3 G-quadruplex (unknown origin) assessed as increase in fluorescence by measuring red shift at 1 uM by UV-Visible spectrophotometric analysis; assay type: nucleic-acid assay
Quadruplex DNA [10] = assay: Binding affinity to parallel TTRG3 G-quadruplex (unknown origin) assessed as formation of anti-parallel G-quadruplex formation in presence of 100 mM K+ by circular dichroism spectra analysis; assay type: nucleic-acid assay
Quadruplex DNA [11] = assay: Binding affinity to parallel TTRG1 G-quadruplex (unknown origin) assessed as formation of anti-parallel G-quadruplex formation in presence of 100 mM K+ by circular dichroism spectra analysis; assay type: nucleic-acid assay
HepG2 [12] = assay: Cytotoxicity against human HepG2 cells at 50 uM by CCK-8 assay relative to control; assay type: toxicity, cell-based; details: hepg2, 50 µM
Quadruplex DNA [13] = assay: Binding affinity to TTRG3 G-quadruplex (unknown origin) assessed as dissociation constant by fluorescence spectroscopy; assay type: nucleic-acid assay

Structure (SMILES)	Activity (HepG2 [1])	Activity (HepG2 [2])	Activity (Quadruplex DNA [3])	Activity (Quadruplex DNA [4])	ΔTm (Quadruplex DNA [5]) [°C]	Activity (Quadruplex DNA [6])	Activity (Quadruplex DNA [7])	Tm (Quadruplex DNA [8]) [°C]	Activity (Quadruplex DNA [9])	Activity (Quadruplex DNA [10])	Activity (Quadruplex DNA [11])	Activity (HepG2 [12]) [%]	pKd (Quadruplex DNA [13])
C[n+]1ccc(-c2c3nc(c(-c4cc[n+](C)cc4)c4ccc([nH]4)c(-c4cc[n+](C)cc4)c4ccc([nH]4)c(-c4cc[n+](C)cc4)c4nc2C=C4)C=C3)cc1	Dose-Dependent Effect	inactive	Active	Active	21.5	inactive	Active	69.4	Active	inactive	inactive		
CCC1=C(C)c2cc3[nH]c(cc4nc(cc5c(CC)c(C)c(cc1n2)n5C)C(C)=C4CCC(=O)O)c(CCC(=O)O)c3C		inactive	Active	Active	16.1	Active	Active	64	Active	inactive	inactive	85	8.28
CN(C)c1ccc(Nc2c3ccc(NC(=O)CCN4CCCC4)cc3nc3cc(NC(=O)CCN4CCCC4)ccc23)cc1	Dose-Dependent Effect	inactive	Active	inactive	6.9	inactive	Active	54.8	inactive	inactive	inactive	85	
CN1/C(=C/c2cc[n+](C)c3ccccc23)Sc2ccccc21.Cc1ccc(S(=O)(=O)[O-])cc1		inactive	Active	Active	5.4	Active	Active	53.3	Active	inactive	inactive	85	6.78
C[n+]1ccc(-c2c3nc(c(-c4cc[n+](C)cc4)c4ccc([nH]4)c(-c4cc[n+](C)cc4)c4nc(c(-c5cc[n+](C)cc5)c5ccc2[nH]5)C=C4)C=C3)cc1.Cc1ccc(S(=O)(=O)[O-])cc1.Cc1ccc(S(=O)(=O)[O-])cc1.Cc1ccc(S(=O)(=O)[O-])cc1.Cc1ccc(S(=O)(=O)[O-])cc1												85	6.83
